Here are results for 23 compounds from US7932255B2, “2-aminocarbonyl substituted piperazine or diaza-cyclic compounds as apoptosis protein inhibitors (lap) modulators” (Novartis AG, priority 2006, dated 2011).

One assay deals with T1, XIAP (Homo sapiens, UniProt P98170).
T1 construct: GST
T1 sequence (P98170 248-358 limits assumed, species assumed): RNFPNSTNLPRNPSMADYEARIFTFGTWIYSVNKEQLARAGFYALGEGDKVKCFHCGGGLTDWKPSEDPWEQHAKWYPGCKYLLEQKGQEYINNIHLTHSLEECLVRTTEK
The experiment in a line: Disruption of the Smac peptide-(XIAP)BIR3 protein-protein interaction (Tables 2 and 3). The assay is classed as binding. Conditions: Series A compounds, Table 2; read-out: XIAP IC50. As for the experimental part:
IC50 values for Series A compounds for XIAP. An assay capable of measuring disruption of the Smac peptide-(XIAP)BIR3 protein-protein interaction is established in the art as described in Example 2. In this assay IAP Inhibitor compounds compete with an immobilized Smac peptide for occupancy of the BIR3 binding pocket of XIAP. The rationale for this strategy results from the mutually exclusive nature of either Caspase 9 or Smac binding to the BIR3 pocket.
Assays are performed and IC50 values are calculated as follows: […]
IC50 values are calculated by logarithmic regression analysis of the percentage inhibition of each compound at 4 concentrations (usually 3- or 10-fold dilution series starting at 10 μM). In each experiment, the actual inhibition by reference compound is used for normalization of IC50 values to the basis of an average value of the reference inhibitor: Normalized IC50=measured IC50 average ref. IC50/measured ref. IC50
Activity determinations of compounds herein using the testing method described herein and as are well known in the art, are used with the following test compounds of formula (I). […] “Activity” as used herein is defined as having IC50 values for IAP target inhibition of less than 10 μM. Specifically, in the table:
IC50 values for Series B compounds are provided for XIAP. Assays are performed as described above using methods well known in the art.
One may read the IC50 as the concentration that gives 50% inhibition. In the case of `CN[C@@H](C)C(=O)N[C@H](C(=O)N1CCN(Cc2cccc3[nH]ccc23)C[C@H]1C(=O)NC1CCCc2ccccc21)C(C)C` (stereo partly drawn) [Compound 15, (S)-4-(1H-Indol-4-ylmethyl)-1-[(S)-3-methyl-2-((S)-2-methylamino-propionylamino)-butyryl]-piperazine-2-carboxylic acid (1,2,3,4-tetrahydro-naphthalen-1-yl)-amide], the IC50 was below 10 µM.

Regarding `CN[C@@H](C)C(=O)N[C@H](C(=O)N1CCN(S(=O)(=O)c2sccc2-c2ccno2)C[C@H]1C(=O)NC1CCCc2ccccc21)C(C)C` (stereo partly drawn) [Compound 42, (S)-4-(3-Isoxazol-5-yl-thiophene-2-sulfonyl)-1-[(S)-3-methyl-2-((S)-2-methylamino-propionylamino)-butyryl]-piperazine-2-carboxylic acid (1,2,3,4-tetrahydro-naphthalen-1-yl)-amide], the IC50 is below 10 µM.

Regarding `CN[C@@H](C)C(=O)N[C@H](C(=O)N1CCN(C(=O)NC2CCCC2)C[C@H]1C(=O)NC1CCCc2ccccc21)C(C)C` (stereo partly drawn) [Compound 28, (S)-4-[(S)-3-Methyl-2-((S)-2-methylamino-propionylamino)-butyryl]-piperazine-1,3-dicarboxylic acid 1-cyclopentylamide 3-[(1,2,3,4-tetrahydro-naphthalen-1-yl)-amide]], the IC50 was below 10 µM.

On to `CN[C@@H](C)C(=O)N[C@H](C(=O)N1CCN(Cc2ccc(C)cc2)C[C@H]1C(=O)NC1CCCc2ccccc21)C(C)C` (stereo partly drawn) [Compound 51, (S)-4-(4-Methyl-benzyl)-1-[(S)-3-methyl-2-((S)-2-methylamino-propionylamino)-butyryl]-piperazine-2-carboxylic acid (1,2,3,4-tetrahydro-naphthalen-1-yl)-amide], for which the IC50 is below 10 µM.

Regarding `CCCCN1CCN(C(=O)[C@@H](NC(=O)[C@H](C)NC)C(C)C)[C@H](C(=O)NC2CCCc3ccccc32)C1` (stereo partly drawn) [Compound 33, (S)-4-Butyl-1-[(S)-3-methyl-2-((S)-2-methylamino-propionylamino)-butyryl]-piperazine-2-carboxylic acid (1,2,3,4-tetrahydro-naphthalen-1-yl)-amide], the concentration for half-maximal inhibition (IC50) is below 10 µM.

Turning to `CN[C@@H](C)C(=O)N[C@H](C(=O)N1CCN(Cc2ccc(C(F)(F)F)cc2)C[C@H]1C(=O)NC1CCCc2ccccc21)C(C)C` (stereo partly drawn) [Compound 12, (S)-1-[(S)-3-Methyl-2-((S)-2-methylamino-propionylamino)-butyryl]-4-(4-trifluoromethyl-benzyl)-piperazine-2-carboxylic acid (1,2,3,4-tetrahydro-naphthalen-1-yl)-amide], the IC50 was below 10 µM.

As for `CN[C@@H](C)C(=O)N[C@H](C(=O)N1CCNC[C@H]1C(=O)NC1CCCc2ccccc21)C1CCCCC1` (stereo partly drawn) [Compound 59, (S)-1-[(S)-2-Cyclohexyl-2-((S)-2-methylamino-propionylamino)-acetyl]-piperazine-2-carboxylic acid (1,2,3,4-tetrahydro-naphthalen-1-yl)-amide], the IC50 was below 10 µM.

As to `CN[C@@H](C)C(=O)N[C@H](C(=O)N1CCN(Cc2ccc(OC(F)(F)F)cc2)C[C@H]1C(=O)NC1CCCc2ccccc21)C(C)C` (stereo partly drawn) [Compound 23, (S)-1-[(S)-3-Methyl-2-((S)-2-methylamino-propionylamino)-butyryl]-4-(4-trifluoromethoxy-benzyl)-piperazine-2-carboxylic acid (1,2,3,4-tetrahydro-naphthalen-1-yl)-amide], the IC50 was below 10 µM.

For the compound `CN[C@@H](C)C(=O)N[C@H](C(=O)N1CCN(S(=O)(=O)C2CCCCC2)C[C@H]1C(=O)NC1CCCc2ccccc21)C(C)C` (stereo partly drawn) [Compound 11, (S)-4-Cyclohexanesulfonyl-1-[(S)-3-methyl-2-((S)-2-methylamino-propionylamino)-butyryl]-piperazine-2-carboxylic acid (1,2,3,4-tetrahydro-naphthalen-1-yl)-amide], the IC50 was below 10 µM.

Take `CN[C@@H](C)C(=O)N[C@H](C(=O)N1CCN(Cc2ccccc2)C[C@H]1C(=O)NC1CCCc2ccccc21)C(C)C` (stereo partly drawn) [Compound 53, (S)-4-Benzyl-1-[(S)-3-methyl-2-((S)-2-methylamino-propionylamino)-butyryl]-piperazine-2-carboxylic acid (1,2,3,4-tetrahydro-naphthalen-1-yl)-amide]: the IC50 was below 10 µM.

Consider `CN[C@@H](C)C(=O)N[C@H](C(=O)N1CCN(c2ccc(F)cc2)C[C@H]1C(=O)NC1CCCc2ccccc21)C(C)C` (stereo partly drawn) [Compound 44, (S)-4-(4-Fluoro-phenyl)-1-[(S)-3-methyl-2-((S)-2-methylamino-propionylamino)-butyryl]-piperazine-2-carboxylic acid (1,2,3,4-tetrahydro-naphthalen-1-yl)-amide], for which the IC50 is below 10 µM.

Take `CC(C)[C@H](NC(=O)[C@H](C)N(C)C(=O)OC(C)(C)C)C(=O)N1CCN(Cc2ccccc2)C[C@H]1C(=O)N[C@@H]1CCCc2ccccc21` [Compound 57, [(S)-1-((S)-1-{(S)-4-Benzyl-2-[(R)-(1,2,3,4-tetrahydro-naphthalen-1-yl)carbamoyl]-piperazine-1-carbonyl}-2-methyl-propylcarbamoyl)-ethyl]-methyl-carbamic acid tert-butyl ester]: the IC50 is above 10 µM.

Take `CN[C@@H](C)C(=O)N[C@H](C(=O)N1CCN(C(=O)NCc2ccccc2)C[C@H]1C(=O)NC1CCCc2ccccc21)C(C)C` (stereo partly drawn) [Compound 5, (S)-4-[(S)-3-Methyl-2-((S)-2-methylamino-propionylamino)-butyryl]-piperazine-1,3-dicarboxylic acid 1-benzylamide 3-[(1,2,3,4-tetrahydro-naphthalen-1-yl)-amide]]: the IC50 was below 10 µM.

Turning to `CCCN1CCN(C(=O)[C@@H](NC(=O)[C@H](C)NC)C(C)C)[C@H](C(=O)NC2CCCc3ccccc32)C1` (stereo partly drawn) [Compound 25, (S)-1-[(S)-3-Methyl-2-((S)-2-methylamino-propionylamino)-butyryl]-4-propyl-piperazine-2-carboxylic acid (1,2,3,4-tetrahydro-naphthalen-1-yl)-amide], the IC50 was below 10 µM.

In the case of `CN[C@@H](C)C(=O)N[C@H](C(=O)N1CCN(Cc2ccc(F)cc2)C[C@H]1C(=O)NC1CCCc2ccccc21)C(C)C` (stereo partly drawn) [Compound 10, (S)-4-(4-Fluoro-benzyl)-1-[(S)-3-methyl-2-((S)-2-methylamino-propionylamino)-butyryl]-piperazine-2-carboxylic acid (1,2,3,4-tetrahydro-naphthalen-1-yl)-amide], the IC50 is below 10 µM.

Still in this assay, the particulars now being: Series B compounds, Table 3; read-out: XIXP IC50.
With `CN[C@@H](C)C(=O)N[C@H](C(=O)N1CCN(Cc2ccccc2)C[C@H]1C(=O)NC1CCc2ccccc21)C(C)C` (stereo partly drawn) [Compound 62, (S)-4-Benzyl-1-[(S)-3-methyl-2-((S)-2-methylamino-propionylamino)-butyryi]-piperazine-2-carboxylic acid indan-1-ylamide], the IC50 is below 10 µM.

With `CN[C@@H](C)C(=O)N[C@H](C(=O)N1CCN(Cc2ccccc2)C[C@H]1C(=O)NCc1nccs1)C(C)C` [Compound 73, (S)-4-Benzyl-1-[(S)-3-methyl-2-((S)-2-methylamino-propionylamino)-butyryl]-piperazine-2-carboxylic acid (thiazol-2-ylmethyl)-amide], the IC50 was above 10 µM.

In the case of `CN[C@@H](C)C(=O)N[C@H](C(=O)N1CCN(Cc2ccccc2)C[C@H]1C(=O)NC(c1ccccc1)c1ccccc1)C(C)C` [Compound 64, (S)-4-Benzyl-1-[(S)-3-methyl-2-((S)-2-methylamino-propionylamino)-butyryl]-piperazine-2-carboxylic acid benzhydryl-amide], the IC50 was below 10 µM.

`CN[C@@H](C)C(=O)N[C@H](C(=O)N1CCN(Cc2ccccc2)C[C@H]1C(=O)NC1CCc2ccccc2C1)C(C)C` (stereo partly drawn) [Compound 68, (S)-4-Benzyl-1-[(S)-3-methyl-2-((S)-2-methylamino-propionylamino)-butyryl]-piperazine-2-carboxylic acid (1,2,3,4-tetrahydro-naphthalen-2-yl)-amide]: the IC50 is below 10 µM.

With `CN[C@@H](C)C(=O)N[C@H](C(=O)N1CCN(Cc2ccccc2)C[C@H]1C(=O)NCc1cc(F)cc(F)c1)C(C)C` [Compound 84, (S)-4-Benzyl-1-[(S)-3-methyl-2-((S)-2-methylamino-propionylamino)-butyryl]-piperazine-2-carboxylic acid 3,5-difluoro-benzylamide], the IC50 is below 10 µM.

Consider `CN[C@@H](C)C(=O)N[C@H](C(=O)N1CCN(Cc2ccccc2)C[C@H]1C(=O)NCC1CCCCCC1)C(C)C` [Compound 77, (S)-4-Benzyl-1-[(S)-3-methyl-2-((S)-2-methylamino-propionylamino)-butyryl]-piperazine-2-carboxylic acid cycloheptylmethyl-amide], for which the half-inhibitory concentration (IC50) was above 10 µM.

Regarding `CN[C@@H](C)C(=O)N[C@H](C(=O)N1CCN(Cc2ccccc2)C[C@H]1C(=O)NCCc1ccccc1)C(C)C` [Compound 61, (S)-4-Benzyl-1-[(S)-3-methyl-2-((S)-2-methylamino-propionylamino)-butyryl]-piperazine-2-carboxylic acid phenethyl-amide], the IC50 was below 10 µM.

Take `CN[C@@H](C)C(=O)N[C@H](C(=O)N1CCN(Cc2ccccc2)C[C@H]1C(=O)NC(Cc1ccccc1)Cc1ccccc1)C(C)C` [Compound 80, (S)-4-Benzyl-1-[(S)-3-methyl-2-((S)-2-methylamino-propionylamino)-butyryl]-piperazine-2-carboxylic acid (1-benzyl-2-phenyl-ethyl)-amide]: the IC50 was below 10 µM.
